From ChEMBL document CHEMBL1201862, “PubChem BioAssay data set” (2004)
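Method: 48-hour compound exposure of cells in 96-well plates, five concentrations, linear interpolation of endpoints. GI50 marks 50% less growth.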 Activity calls are given as the source filed them. Rule as the data show it: active = GI50 up to about 1.1 µM and inactive = higher.

Key:
Assay in all cases: NCI anticancer screen, dose series, 48 h
LOX IMVI = test system: LOX IMVI
OVCAR-3 = test system: OVCAR-3
CCRF-CEM = test system: CCRF-CEM
HCT-15 = test system: HCT-15
SK-OV-3 = test system: SK-OV-3
HOP-18 = test system: HOP-18
CAKI-1 = test system: CAKI-1
HCT-116 = test system: HCT-116
M19-MEL = test system: M19-MEL
SK-MEL-5 = test system: SK-MEL-5
MCF7 = test system: MCF7
HOP-62 = test system: HOP-62
RPMI-8226 = test system: RPMI-8226
HOP-92 = test system: HOP-92
KM-20L2 = test system: KM-20L2

Row | SMILES | GI50 (LOX IMVI) | GI50 (OVCAR-3) | GI50 (CCRF-CEM) | GI50 (HCT-15) | GI50 (SK-OV-3) | GI50 (HOP-18) | GI50 (CAKI-1) | GI50 (HCT-116) | GI50 (M19-MEL) | GI50 (SK-MEL-5) | GI50 (MCF7) | GI50 (HOP-62) | GI50 (RPMI-8226) | GI50 (HOP-92) | GI50 (KM-20L2)
1 | CN1CCN(P2(=S)Oc3ccc4ccccc4c3-c3c(ccc4ccccc34)O2)CC1 | 18.9 µM (inactive) | 27.9 µM (inactive) | 29.8 µM (inactive) | 28.7 µM | > 71.3 µM (inactive) | > 65.2 µM (inactive) | 15.4 µM (inactive) | 32.7 µM (inactive) | 30.3 µM (inactive) | 22.2 µM (inactive) | 13.6 µM (inactive) | 26.3 µM (inactive) | 7.8 µM (inactive) | 13.6 µM (inactive) | 22.8 µM (inactive)
2 | COC1=C2CC(C)CC(OC)C(O)C(C)/C=C(\C)C(OC(N)=O)C(OC)/C=C\C=C(/C)C(=O)NC(=C(/C=N/C(C)(C)C)C1=O)C2=O (stereo not given) | 4.41 µM (inactive) | 0.585 µM (active) | 0.857 µM (active) | 6.28 µM | 24.7 µM (inactive) | 6.85 µM (inactive) | 3.08 µM (inactive) | 3.69 µM (inactive) | 4.45 µM (inactive) | 2.79 µM (inactive) | 2.89 µM (inactive) | 5.86 µM (inactive) | 0.946 µM (active) | 0.303 µM (active) | 2.28 µM (inactive)
3 | CCOC(=O)/C=C/c1c(C)[nH]c(=O)[nH]c1=O | > 250 µM (inactive) | > 242 µM (inactive) | > 250 µM (inactive) | > 250 µM | > 141 µM (inactive) | > 250 µM (inactive) | 191 µM (inactive) | > 250 µM (inactive) | > 250 µM (inactive) | > 250 µM (inactive) | 244 µM (inactive) | > 250 µM (inactive) | > 250 µM (inactive) | 19.1 µM (inactive) | > 250 µM (inactive)
